How the values were obtained:
Type in all cases: biochemical
Rhodococcus HPPD1 = assay: HPPD activity assay, Rhodococcus HPPD1; conditions: normalized on Arabidopsis wild-type HPPD
Experimental: (§1) HPPD produces homogentisic acid and CO2 from 4-hydroxyphenylpyruvate (4-HPP) and O2. The activity assay for HPPD is based on the analysis of homogentisic acid by reversed phase HPLC.
(§2) The assay mixture can contain 150 mM potassium phosphate buffer pH 7.0, 50 mM L-ascorbic acid, 1 μM FeSO4 and 7 μg of purified enzyme in a total volume of 1 ml.
Inhibitors are dissolved in DMSO (dimethylsulfoxide) to a concentration of 20 mM or 0.5 mM, respectively. From this stock solution serial five-fold dilutions are prepared in DMSO, which are used in the assay. The respective inhibitor solution accounts for 1% of the assay volume. […]
Activities are normalized by setting the uninhibited enzyme activity to 100%. IC50 values are calculated using non-linear regression. […]
(§3) Inhibitors are dissolved in DMSO (dimethylsulfoxide) to a concentration of 0.5 mM. […] IC50 values are calculated using non-linear regression.
Using methods which are described in the above examples or well known in the art, purified, recombinant wildtype HPPD enzymes are characterized with respect to their kinetic properties and sensitivity towards HPPD inhibiting herbicides. Apparent michaelis constants (Km) and maximal reaction velocities (Vmax) are calculated by non-linear regression with the software GraphPad Prism 5 (GraphPad Software, La Jolla, USA) using a substrate inhibition model. […]

Poa HPPD = assay: HPPD activity assay, Poa HPPD; conditions: normalized on Arabidopsis wild-type HPPD
Experimental: as §1, §2
(§4) Inhibitors are dissolved in DMSO (dimethylsulfoxide) to a concentration of 20 mM or 0.5 mM, respectively. From this stock solution serial five-fold dilutions are prepared in DMSO, which are used in the assay. The respective inhibitor solution accounts for 1% of the assay volume. Thus, final inhibitor concentrations range from 200 μM to 2.5 nM or from 5 μM to 63 pM, respectively. After a preincubation of 30 min the reaction is started by adding 4-HPP to a final concentration of 0.1 mM. The reaction is allowed to proceed for 120 min at room temperature. The reaction is stopped by addition of 100 μl of 4.5 M phosphoric acid.
(§5) Activities are normalized by setting the uninhibited enzyme activity to 100%. IC50 values are calculated using non-linear regression.
(§6) The assay mixture can contain 150 mM potassium phosphate buffer pH 7.0, 50 mM L-ascorbic acid, 100 μM Catalase (Sigma-Aldrich), 1 μM FeSO4 and 0.2 units of purified HPPD enzyme in a total volume of 505 μl. […]
as §3
(§7) Using methods which are described in the above examples or well known in the art, purified, recombinant wildtype HPPD enzymes are characterized with respect to their kinetic properties and sensitivity towards HPPD inhibiting herbicides. Apparent michaelis constants (Km) and maximal reaction velocities (Vmax) are calculated by non-linear regression with the software GraphPad Prism 5 (GraphPad Software, La Jolla, USA) using a substrate inhibition model. […] Weighted means (by standard error) of Km and […] values are calculated from at least three independent experiments. […]

[1] = target: T1, Hordeum HPPD variant L353M, P321R, V212I (Hordeum vulgare, UniProt O48604, L353M/P321R/V212I); assay: HPPD activity assay, Hordeum HPPD mutant L353M, P321R, V212I; conditions: normalized on Hordeum wild-type HPPD
T1 construct: His (N); made in house; host or cells: E. coli BL21 (DE3)
T1 sequence (O48604 whole entry R146V/R147D/R148G/A164G/V212I/P321R/L353M): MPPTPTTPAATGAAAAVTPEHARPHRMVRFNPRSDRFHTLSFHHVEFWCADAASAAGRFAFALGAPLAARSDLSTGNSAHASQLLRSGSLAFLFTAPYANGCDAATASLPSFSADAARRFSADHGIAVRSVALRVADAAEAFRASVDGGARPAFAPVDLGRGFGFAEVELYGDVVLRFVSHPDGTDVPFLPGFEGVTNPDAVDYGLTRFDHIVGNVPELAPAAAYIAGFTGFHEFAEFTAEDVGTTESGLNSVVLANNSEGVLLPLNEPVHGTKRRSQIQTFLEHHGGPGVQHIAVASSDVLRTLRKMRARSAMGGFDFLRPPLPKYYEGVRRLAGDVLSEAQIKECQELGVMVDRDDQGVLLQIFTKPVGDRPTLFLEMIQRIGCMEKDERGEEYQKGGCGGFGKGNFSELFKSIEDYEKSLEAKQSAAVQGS
Experimental: as §1, §2
Inhibitors are dissolved in DMSO (dimethylsulfoxide) to a concentration of 20 mM or 0.5 mM, respectively. From this stock solution serial five-fold dilutions are prepared in DMSO, which are used in the assay. The respective inhibitor solution accounts for 1% of the assay volume. […] After a preincubation of 30 min the reaction is started by adding 4-HPP to a final concentration of 0.1 mM. The reaction is allowed to proceed for 120 min at room temperature. The reaction is stopped by addition of 100 μl of 4.5 M phosphoric acid.
as §5
(§8) The assay mixture can contain 150 mM potassium phosphate buffer pH 7.0, 50 mM L-ascorbic acid, 100 μM Catalase (Sigma-Aldrich), 1 μM FeSO4 and 0.2 units of purified HPPD enzyme in a total volume of 505 μl. 1 unit is defined as the amount of enzyme that is required to produce 1 nmol of HGA per minute at 20° C.
Inhibitors are dissolved in DMSO (dimethylsulfoxide) to a concentration of 0.5 mM. From this stock solution serial five-fold dilutions are prepared in DMSO, which are used in the assay. The respective inhibitor solution accounts for 1% of the assay volume. […] Activities are normalized by setting the uninhibited enzyme activity to 100%. IC50 values are calculated using non-linear regression.
Purified, mutant HPPD enzymes are obtained by the methods described above. Dose response and kinetic measurements are carried out using the described HPPD activity assay. Apparent michaelis constants (Km) and maximal reaction velocities (Vmax) are calculated by non-linear regression with the software GraphPad Prism 5 (GraphPad Software, La Jolla, USA) using a substrate inhibition model.
Field performance of the optimized HPPD enzyme, which is used as a herbicide tolerance trait may depend not only on its lack of sensitivity towards HPPD inhibiting herbicides but also on its activity. To assess the potential performance of a herbicide tolerance trait a tolerance index (TI) is calculated using the following formula: […]
Easy comparison and ranking of each trait is enabled by normalizing tolerance indexes on Arabidopsis or Hordeum wild-type HPPD.

Rhodococcus HPPD2 = assay: HPPD activity assay, Rhodococcus HPPD2; conditions: normalized on Arabidopsis wild-type HPPD
Experimental: as §1, §2, §4, §5, §6, §3, §7

Alopecurus HPPD = assay: HPPD activity assay, Alopecurus HPPD; conditions: normalized on Arabidopsis wild-type HPPD
Experimental: as §1, §2, §4, §5, §6, §3, §7

Lolium HPPD = assay: HPPD activity assay, Lolium HPPD; conditions: normalized on Arabidopsis wild-type HPPD
Experimental: as §1, §2, §4, §5, §8
Inhibitors are dissolved in DMSO (dimethylsulfoxide) to a concentration of 0.5 mM. From this stock solution serial five-fold dilutions are prepared in DMSO, which are used in the assay. The respective inhibitor solution accounts for 1% of the assay volume. Thus, final inhibitor concentrations range from 5 μM to 320 pM, respectively. Activities are normalized by setting the uninhibited enzyme activity to 100%. IC50 values are calculated using non-linear regression.
as §7
Field performance of the HPPD enzyme, which is used as a herbicide tolerance trait, may depend not only on its lack of sensitivity towards HPPD inhibiting herbicides but also on its activity. To assess the potential performance of a herbicide tolerance trait a tolerance index (TI) is calculated using the following formula: […]

SMILES	Normalized tolerance index TI (Rhodococcus HPPD1)	Normalized tolerance index TI (Poa HPPD)	Normalized tolerance index TI [1]	Normalized tolerance index TI (Rhodococcus HPPD2)	Normalized tolerance index TI (Alopecurus HPPD)	Normalized tolerance index TI (Lolium HPPD)
CC1=NOC(c2c(Cl)ccc(C3=C(O)c4ncccc4C(C)(C)S3(=O)=O)c2Cl)C1 (stereo not drawn) [Inhibitor 1, 7-[2,4-dichloro-3-(3-methyl-4,5-dihydroisoxazol-5-yl)phenyl]-5,5-dimethyl-6,6-dioxo-thiopyrano[4,3-b]pyridin-8-ol]	39	2.1	2.2	73	2.5	4.2
COCCOCc1c(Cl)ccc(C2=C(O)c3ncccc3C(C)(C)S2(=O)=O)c1Cl [Inhibitor 3, 7-[2,4-dichloro-3-(2-methoxyethoxymethyl)phenyl]-5,5-dimethyl-6,6-dioxo-thiopyrano[4,3-b]pyridin-8-ol]	1.6	–	1.9	2.1	–	0.3
CC1(C)c2cccnc2C(O)=C(c2ccc(Cl)nc2Cl)S1(=O)=O [Inhibitor 2, 7-(2,6-dichloro-3-pyridyl)-5,5-dimethyl-6,6-dioxo-thiopyrano[4,3-b]pyridin-8-ol]	–	1.1	1.5	11.4	1.4	1.8

— patent US20140357487A1, “PLANTS HAVING INCREASED TOLERANCE TO HERBICIDES” (BASF SE, priority 2011, published 2014)
